Reference: article PMC10227015, “From a drug repositioning to a structure-based drug design approach to tackle acute lymphoblastic leukemia” (Nature Communications, 2023)
Read-outs that look alike come from different tables or passages of the source.

How the values were obtained:
[1] = tested on: dCK-C3S-S74E; experiment: Enzymatic assay (PK/LDH coupled), dC phosphorylation by dCK in the presence of UTP; assay type: biochemical, human; details: for ENZYMATIC ASSAY (Activation/Inhibition): presence of UTP; for effect on dCK enzymatic activity, activation versus inhibition: UTP 1 mM, dC 200 µM
Procedure, shortened: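 Activation versus inhibition was judged with 1 mM UTP, 200 µM dC and 2 μM dCK-C3S-S74E, using pyruvate kinase/lactate dehydrogenase coupling that tracks NADH fluorescence decrease at 460 nm. Buffer was HEPES pH 7.5 with MgCl2, KCl and DTT. Rates came from linear slopes, expressed relative to compound-free control.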

[2] = tested on: dCK-C3S-S74E; experiment: Enzymatic assay (PK/LDH coupled), dC phosphorylation by dCK in the presence of ATP; assay type: biochemical, human
Procedure, shortened: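 His-purified dCK-C3S-S74E (100 nM, or 50 nM where indicated) phosphorylated 100 µM dC with 1 mM ATP in 50 mM HEPES pH 7.5, 5 mM MgCl2, 1 mM DTT, 100 mM KCl, coupled via PK/LDH/PEP/300 µM NADH. NADH fluorescence decrease (ex 337/em 460 nm) gave velocities normalized to drug-free control; IC50 by nonlinear regression, triplicates.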

[3] = presence of ATP, [dCK] = 100 nM, read-out: ENZYMATIC ASSAY IC50
[4] = presence of ATP, [dCK] = 50 nM (footnote A), read-out: ENZYMATIC ASSAY IC50

dCK-C3S-S74E, sequence (P27707 whole entry S74E, form open): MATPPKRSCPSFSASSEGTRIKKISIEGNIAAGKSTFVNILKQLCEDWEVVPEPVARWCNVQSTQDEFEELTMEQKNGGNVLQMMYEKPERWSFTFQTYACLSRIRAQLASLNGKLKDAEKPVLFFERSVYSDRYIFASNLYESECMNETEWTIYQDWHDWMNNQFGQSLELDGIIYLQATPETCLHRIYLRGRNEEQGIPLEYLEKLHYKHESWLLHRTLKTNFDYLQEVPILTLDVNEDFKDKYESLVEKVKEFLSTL

Row | SMILES | ENZYMATIC ASSAY (Activation/Inhibition) [1] | Enzymatic activity (ATP) Mean (% activity) ([2]; 0.16 µM) [%] | Enzymatic activity (ATP) Mean (% activity) ([2]; 0.31 µM) [%] | Enzymatic activity (ATP) Mean (% activity) ([2]; 0.63 µM) [%] | Enzymatic activity (ATP) Mean (% activity) ([2]; 1.25 µM) [%] | Enzymatic activity (ATP) Mean (% activity) ([2]; 2.5 µM) [%] | Enzymatic activity (ATP) Mean (% activity) ([2]; 5 µM) [%] | Enzymatic activity (ATP) Mean (% activity) ([2]; 10 µM) [%] | Enzymatic activity (ATP) Mean (% activity) ([2]; 20 µM) [%] | Enzymatic activity (ATP) Mean (% activity) ([2]; 40 µM) [%] | IC50 [2, 3] [nM] | effect on dCK enzymatic activity, activation versus inhibition [1] | Enzymatic activity (ATP) Mean (% activity) ([2]; 0.04 µM) [%] | Enzymatic activity (ATP) Mean (% activity) ([2]; 0.08 µM) [%] | Enzymatic activity (ATP) Mean (% activity) ([2]; 0.02 µM) [%] | further results
1 | Cc1ccc(-c2ccc(CN3CCN(C)CC3)cc2)cc1Nc1nc(-c2nccc(N)n2)cs1 [OR0274] | A/I | 86.8 | 81.3 | 62.9 | 44.6 | 27.8 | 11.8 | 11.9 | 7.8 | 5.0 | 1033 ± 10 |  |  |  |  | 
2 | Cc1ccc(-c2ccc(CCN3CCN(C)CC3)cc2)cc1Nc1nc(-c2nccc(N)n2)cs1 [OR0325] | A/I | 87.3 | 73.6 | 56.4 | 34.0 | 19.3 | 12.3 | 11.6 | 8.1 | 4.4 | 826 ± 78 |  |  |  |  | 
3 | CCCN(c1nc(-c2nccc(N)n2)cs1)c1cc(-c2ccc(CCN3CCN(C)CC3)cc2)ccc1C [OR0345] | I | 85.5 | 56.9 | 22.9 | 5.3 | -9.9 | -2.1 | -7.8 |  |  | 315 ± 50 | total loss of dCK enzymatic activation | 96.0 | 95.1 |  | 
4 | CCCN(c1nc(-c2nc(N)cc(N)n2)cs1)c1cc(-c2ccc(CCN3CCN(C)CC3)cc2)ccc1C [OR0600] | I | 43.5 | 11.4 | 0.0484 | 1.1 | -0.9 | -8.7 | -3.1 |  |  | 121 ± 21 | only exhibited enzymatic inhibition | 92.1 | 78.6 |  | 
5 | CCCN(c1nc(-c2nc(N)cc(N)n2)cs1)c1cc(-c2ccc(CCN3CCN(C)CC3)nc2)ccc1C [OR0602] | I | 23.6 | 0.751 | 4.3 | 6.6 | 6.1 | 4.8 |  |  |  |  |  | 81.1 | 60.0 | 88.7 | IC50 ([2]; ATP, technical limit of the assay, read-out: enzymatic inhibition IC50): 77 nM
6 | CCCN(c1nc(-c2nc(N)cc(N)n2)cs1)c1cc(-c2ccc(S(=O)(=O)N3CCN(C)CC3)c(OC)c2)ccc1C [OR0635] | I | 15.4 | 4.7 | 4.6 | 2.0 | 1.6 |  |  |  |  |  |  | 82.4 | 61.6 | 74.5 | Enzymatic activity (ATP) Mean (% activity) ([2]; 0.01 µM): 71.4%; IC50 [2, 4]: 66 ± 11 nM
7 | CCCN(c1nc(-c2nc(N)cc(N)n2)cs1)c1cc(-c2ccc(S(=O)(=O)N3CCN(C)CC3)cc2C(F)(F)F)ccc1C [OR0642] | I | 43.5 | 8.3 | 4.2 | 2.4 | -0.5 |  |  |  |  |  | inhibitor even at concentrations in the nanomolar range | 65.5 | 63.0 | 80.5 | Enzymatic activity (ATP) Mean (% activity) ([2]; 0.01 µM): 79.2%; IC50 [2, 4]: 106 ± 30 nM
8 | Cc1ccc(NC(=O)c2ccc(CN3CCN(C)CC3)cc2)cc1Nc1nc(-c2nccc(N)n2)cs1 [dCKi1] | A/I | 93.7 | 94.8 | 91.7 | 77.3 | 51.8 | 30.3 | 11.5 | 3.9 | 3.1 | 2660 ± 608 | shifted from activators to inhibitors |  |  |  | Enzymatic activity (UTP) Mean (% activity) ([1]; 0.078 µM): 104.73%; Enzymatic activity (UTP) Mean (% activity) ([1]; 0.156 µM): 119.43%; Enzymatic activity (UTP) Mean (% activity) ([1]; 0.31 µM): 140.85%; Enzymatic activity (UTP) Mean (% activity) ([1]; 0.625 µM): 200.29%; Enzymatic activity (UTP) Mean (% activity) ([1]; 1.25 µM): 208.47%; Enzymatic activity (UTP) Mean (% activity) ([1]; 2.5 µM): 211.72%; Enzymatic activity (UTP) Mean (% activity) ([1]; 5 µM): 205.54%; Enzymatic activity (UTP) Mean (% activity) ([1]; 10 µM): 84.19%; Enzymatic activity (UTP) Mean (% activity) ([1]; 20 µM): 45.49%; Enzymatic activity (UTP) Mean (% activity) ([1]; 40 µM): 12.08%; Enzymatic activity (UTP) Mean (% activity) ([1]; 80 µM): 5.40%; Enzymatic activity (UTP) Mean (% activity) ([1]; 160 µM): 0.67%
9 | Cc1ccc(NC(=O)c2ccc(CN3CCN(C)CC3)cc2)cc1Nc1nc(-c2nc(N)cc(N)n2)cs1 [dCKi2, N-(3-((4-(4,6-diaminopyrimidin-2-yl)thiazol-2-yl)amino)-4-methylphenyl)-4-((4-methylpiperazin-1-yl)methyl)benzamide] | A/I | 97.2 | 85.8 | 62.1 | 35.4 | 16.5 | 3.9 | 3.9 | 2.6 | 5.2 | 903 ± 37 | shifted from activators to inhibitors |  |  |  | Enzymatic activity (UTP) Mean (% activity) ([1]; 0.156 µM): 93.59%; Enzymatic activity (UTP) Mean (% activity) ([1]; 0.31 µM): 84.70%; Enzymatic activity (UTP) Mean (% activity) ([1]; 0.625 µM): 90.40%; Enzymatic activity (UTP) Mean (% activity) ([1]; 1.25 µM): 99.44%; Enzymatic activity (UTP) Mean (% activity) ([1]; 2.5 µM): 135.24%; Enzymatic activity (UTP) Mean (% activity) ([1]; 5 µM): 164.65%; Enzymatic activity (UTP) Mean (% activity) ([1]; 10 µM): 178.80%; Enzymatic activity (UTP) Mean (% activity) ([1]; 20 µM): 174.40%; Enzymatic activity (UTP) Mean (% activity) ([1]; 40 µM): 165.28%; Enzymatic activity (UTP) Mean (% activity) ([1]; 80 µM): 150.42%; Enzymatic activity (UTP) Mean (% activity) ([1]; 160 µM): 147.75%
